# Where “and” joins values, the source holds several entries; their conditions need not be identical. Identical values can stand only once. Counter-ions that a name gives are not always drawn. Like-named read-outs stand apart in the source and are kept apart here.
# How the values were obtained:
# [1] = test system: rabbit stomach smooth muscle; assay: EFS-stimulated contractions of isolated rabbit stomach smooth muscle; conditions: rabbit stomach antrum strips; EFS 14 Hz
# [2] = Systemic availability of mexiletine in the cynomolgus monkey after oral prodrug dosing; type: in vivo; conditions: 1 mg/kg mexiletine free base
# hNav 1.1 channel = biological target: T1, hNav 1.1 channel (Homo sapiens, UniProt P35498); assay: Block of cloned hNav1.1 channel in CHO cells (IonWorks Quattro); type: cell-based; conditions: for IC50 fold above the parent: relative to mexiletine
# T1 construct: expressed in transfected cells
# Description: Data was corrected for leak current.
# The tonic block was calculated as:
# % Block (Tonic)=(1−ITP1,TA/ITP1,Control)×100%,
# where ITP1, Control and ITP1, TA are the inward peak Na^+ currents elicited by the TP1 in control and in the presence of a test article, respectively. 10 Hz Block—the frequency-dependent block at stimulation frequency 10 Hz was calculated as: […]
# where ITP11, Control and ITP11, TA are the inward peak Na^+ currents elicited by the TP11 in control and in the presence of a test article, respectively. The inactivation state block is defined as the decrease in test pulse (TP12) current amplitude due to the conditioning depolarizing pulse (TP11). The inactivation state block was calculated as:
# % Block (inactivation state)=(1−(ITP12,TA/ITP12,TA)×100%,
# where ITP12, Control and ITP12, TA are the inward peak Na^+ currents elicited by the TP12 in control and in the presence of a test article, respectively. Concentration-response data for the blocks were fit to an equation of the following form: […]
# [3] = mexiletine from prodrug vs parent
# Description: Blood samples were taken at various times after administration and submitted to analysis for the prodrug and parent drug using a validated LC-MS-MS assay. Pharmacokinetic parameters derived from the plasma analytical were determined using Win Nonlin.
# [4] = Systemic availability of mexiletine in the dog after oral prodrug dosing; type: in vivo, Dog (Beagle); conditions: 1 mg/kg mexiletine free base
# Description: Test substances (i.e., mexiletine, and various mexiletine amino acid prodrugs) were administered by oral gavage to groups of five dogs. The characteristics of the test animals are set out in Table 6.
# Blood samples were taken at various times after administration and submitted to analysis for parent drug using a validated LC-MS-MS assay. Pharmacokinetic parameters derived from the plasma analytical were determined using Win Nonlin.
# [5] = cited from earlier work
# [6] = cited from earlier work; remark: listed apart in the source
# sodium channel = conditions: De Bellis et al. (2006); cited from earlier work
# [7] = hNav1.1 in CHO cells, frequency-dependent block at 10 Hz (TP11), read-out: IC50 10 Hz block
# [8] = hNav1.1 in CHO cells, inactivation state block (TP12), read-out: IC50 Inactivated state
# [9] = hNav1.1 in CHO cells, tonic block (TP1), read-out: IC50 Tonic block
# [10] = hNav1.1, 10 Hz block, rounded values, read-out: IC50 values (with the 10 Hz block)
Compound,IC50 (hNav 1.1 channel; [7]),IC50 (hNav 1.1 channel; [8]),IC50 (hNav 1.1 channel; [9]),further results
Cc1cccc(C)c1OCC(C)NC(=O)CN.O=C(O)C(F)(F)F (racemic) [(rac)-mexiletine-glycine trifluoroacetate],107 µM,21.2 µM,398 µM,"duration of vomiting relative to mexiletine (ferret; % of that seen after mexiletine itself): less than 30%; average number of vomits relative to parent drug (ferret; % of those observed after dosing the parent drug): less than 30%; calculated ED50, attenuation of EFS induced contractions [1]: 9.16 µM; F (abs) [2]: 41.5 ± 4.11%; Frel ([3]; individual ferrets, oral 10 mg free base equivalents/kg): 67% and 107% and 103% and 77% and 108% and 101%; Frel, Mean ([3]; mean of six ferrets): 94%; F (abs) [4]: 57 ± 6%"
"Cc1cccc(C)c1OCC(C)N.Cl (racemic) [Mexiletine hydrochloride, (rac)-1-(2,6-dimethylphenoxy)-2-propanamine hydrochloride, reference compound]",38.2 µM,9.1 µM,115 µM,"calculated ED50, attenuation of EFS induced contractions [1]: 2.17 µM; IC50 (hNav 1.1 channel; [10]): 38 µM"
"Cc1cccc(C)c1OCC(C)NC(=O)[C@@H](N)CCCCN (mixture of isomers) [Mexiletine lysine amide, 2,6-diamino-hexanoic acid [2-(2,6-dimethylphenoxy)-1-methylethyl]-amide ditrifluoroacetate]",–,–,–,"calculated ED50, attenuation of EFS induced contractions [1]: 21.83 µM"
"Cc1cccc(C)c1OCC(C)NC(=O)[C@@H](N)CC[S+](C)C.Cl.[Cl-] (stereo partly drawn) [(S)-2-Amino-N-[2-(2,6-dimethyl-phenoxy)-1-methyl-ethyl]-4-(dimethyl-λ^4-sulfanyl chloride)-butyramide hydrochloride]",> 1000 µM,> 1000 µM,> 1000 µM,IC50 fold above the parent (hNav 1.1 channel; hNav1.1): ~20 fold
CNCC[C@H](Oc1cccc2ccccc12)c1cccs1 [Duloxetine],–,–,–,treated patients with nausea ([5]; FDA labeling): 20-40%
Cc1cccc(C)c1OCC(C)NC(=O)C(C)CN (stereo not drawn) [Mexiletine 2-methyl β alanine amide],51.8 µM,16.3 µM,137 µM,–
Cc1cccc(C)c1OCC(C)NC(=O)C1CC(O)CN1 (centres unmarked) [Mexiletine 4-hydroxyproline amide],37 µM,15.5 µM,147 µM,–
Cc1cccc(C)c1OCC(C)NC(=O)C(N)CCCNC(N)=O (centres unmarked) [Mexiletine citrulline amide],359 µM,180 µM,491 µM,–
Cc1cccc(C)c1OCC(C)NC(=O)C(N)C1CC1 (centres unmarked) [Mexiletine cyclopropyl glycine amide],170 µM,42.7 µM,475 µM,–
Cc1cccc(C)c1OCC(C)NC(=O)CN(C)C (centres unmarked) [Mexiletine dimethylglycine amide],10.3 µM,3.2 µM,30.5 µM,–
"Cc1cccc(C)c1OCC(C)NC(=O)[C@@H](N)CCC(=O)O.Cl (stereo partly drawn) [Mexiletine glutamic acid amide, (S)-4-Amino-4-[2-(2,6-dimethyl-phenoxy)-1-methyl-ethylcarbamoyl]-butyric acid hydrochloride]",> 1000 µM,> 1000 µM,> 1000 µM,IC50 (hNav 1.1 channel; [10]): > 1000 µM; IC50 fold above the parent (hNav 1.1 channel; hNav1.1): ~20 fold
"Cc1cccc(C)c1OCC(C)NC(=O)[C@@H](N)CCC(N)=O (stereo partly drawn) [Mexiletine glutamine amide, (S)-2-Amino-pentanedioic acid 5-amide 1-{[2-(2,6-dimethyl-phenoxy)-1-methyl-ethyl]-amide}hydrochloride]",139 µM,67.3 µM,751 µM,–
Cc1cccc(C)c1OCC(C)NC(=O)C(N)Cc1c[nH]cn1 (centres unmarked) [Mexiletine histidine amide],42.1 µM,21.2 µM,79.5 µM,–
"Cc1cccc(C)c1OCC(C)NC(=O)[C@@H](N)CCCCNC(=N)N (stereo partly drawn) [Mexiletine homoarginine amide, (S)-2-Amino-6-guanidino-hexanoic acid [2-(2,6-dimethyl-phenoxy)-1-methyl-ethyl]-amide dihydrochloride]",624 µM,257 µM,742 µM,IC50 (hNav 1.1 channel; [10]): 624 µM; IC50 fold above the parent (hNav 1.1 channel; hNav1.1): ~20 fold
Cc1cccc(C)c1OCC(C)NC(=O)c1ccncc1 (centres unmarked) [Mexiletine isonicotinic acid amide],439 µM,130 µM,818 µM,–
Cc1cccc(C)c1OCC(C)NC(=O)c1cccnc1 (centres unmarked) [Mexiletine nicotinic acid amide],350 µM,61.2 µM,495 µM,–
Cc1cccc(C)c1OCC(C)NC(=O)[C@@H](N)Cc1ccccc1.Cl (some centres unmarked) [Mexiletine phenylalanine amide],–,–,–,F (abs) [4]: 38 ± 6%
Cc1cccc(C)c1OCC(C)NC(=O)C1CCCCN1 (centres unmarked) [Mexiletine pipecolic acid amide],6 µM,2.7 µM,26 µM,–
CNCC(=O)NC(C)COc1c(C)cccc1C (centres unmarked) [Mexiletine sarcosine amide],38.9 µM,6.3 µM,186 µM,–
Cc1cccc(C)c1OCC(C)NC(=O)C(N)CO (centres unmarked) [Mexiletine serine amide],50.3 µM,14.1 µM,239 µM,–
Cc1cccc(C)c1OCC(C)NC(=O)C(N)C(C)O (centres unmarked) [Mexiletine threonine amide],41.4 µM,11.6 µM,234 µM,–
Cc1cccc(C)c1OCC(C)NC(=O)[C@@H](N)C(C)C.Cl (some centres unmarked) [Mexiletine valine amide],–,–,–,F (abs) [4]: 35 ± 6%
Cc1cccc(C)c1OCC(C)NC(=O)[C@@H](NC(=O)[C@@H](N)C(C)C)C(C)C.Cl (some centres unmarked) [Mexiletine valine-valine amide],–,–,–,F (abs) [4]: 50 ± 9%
Cc1cccc(C)c1OCC(C)NC(=O)CCN (stereo not drawn) [Mexiletine β alanine amide],59.5 µM,23.5 µM,245 µM,–
Cc1cccc(C)c1OCC(C)NC(=O)C(N)CN (stereo not drawn) [Mexiletine β amino alanine amide],180 µM,61.8 µM,478 µM,–
NCC1(CC(=O)O)CCCCC1 [gabapentin],–,–,–,Bioavailability ([6]; 900 mg/day gabapentin): approximately 60%; Bioavailability ([6]; 1200 mg/day gabapentin): ~47%; Bioavailability ([6]; 2400 mg/day gabapentin): ~34%; Bioavailability ([6]; 3600 mg/day gabapentin): ~33%; Bioavailability ([6]; 4800 mg/day gabapentin): ~27%
CC(C)C[C@H](CN)CC(=O)O [pregabalin],–,–,–,patients with dizziness and somnolence ([5]; patients treated at the higher doses (FDA labeling)): up to 30%
Para-hydroxymexiletine,–,–,–,sodium channel inhibitory activity retained vs parent molecule (sodium channel): around 25%

# — patent publication US20110028552A1, “MEXILETINE AMINO ACID AND PEPTIDE PRODRUGS AND USES THEREOF” (priority 2009, published 2011)
